Assay results published in the NIST ThermoML archive (doi:10.1016/j.jct.2017.07.009).

Details: 1410 K; Crystal; Calculated from knudsen effusion weight loss

Question: For `[O-2].[Zn+2]` [zinc(II) oxide], which “vapor or sublimation pressure” value is on record?
Answer: Its value is 0.00842 kPa.
